Holding throughout (assay type): biochemical
In assay [1] the target is T1, FXa (Homo sapiens, UniProt P00742). The experiment in a line: Flu-II cleavage by residual FXa in whole blood. The following applies: citrated whole blood, 0 to 100 nM in blood (2 nM final, 50-fold dilution).
Target sequence in this assay (P00742 41-179 limits assumed): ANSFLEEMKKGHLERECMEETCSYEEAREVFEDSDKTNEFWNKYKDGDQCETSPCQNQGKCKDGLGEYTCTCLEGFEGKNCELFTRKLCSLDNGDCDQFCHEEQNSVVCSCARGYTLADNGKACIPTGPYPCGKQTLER
Target sequence in this assay (P00742 235-488 limits assumed): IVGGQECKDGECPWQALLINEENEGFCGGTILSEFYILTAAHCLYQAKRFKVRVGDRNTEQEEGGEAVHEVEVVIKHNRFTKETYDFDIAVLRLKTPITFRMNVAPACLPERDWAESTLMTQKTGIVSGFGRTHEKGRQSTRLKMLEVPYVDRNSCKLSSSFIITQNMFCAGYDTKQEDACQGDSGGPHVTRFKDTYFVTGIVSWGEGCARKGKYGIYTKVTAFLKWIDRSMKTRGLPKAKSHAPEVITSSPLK
Target sequence in this assay (P12259 29-737 partner limits assumed): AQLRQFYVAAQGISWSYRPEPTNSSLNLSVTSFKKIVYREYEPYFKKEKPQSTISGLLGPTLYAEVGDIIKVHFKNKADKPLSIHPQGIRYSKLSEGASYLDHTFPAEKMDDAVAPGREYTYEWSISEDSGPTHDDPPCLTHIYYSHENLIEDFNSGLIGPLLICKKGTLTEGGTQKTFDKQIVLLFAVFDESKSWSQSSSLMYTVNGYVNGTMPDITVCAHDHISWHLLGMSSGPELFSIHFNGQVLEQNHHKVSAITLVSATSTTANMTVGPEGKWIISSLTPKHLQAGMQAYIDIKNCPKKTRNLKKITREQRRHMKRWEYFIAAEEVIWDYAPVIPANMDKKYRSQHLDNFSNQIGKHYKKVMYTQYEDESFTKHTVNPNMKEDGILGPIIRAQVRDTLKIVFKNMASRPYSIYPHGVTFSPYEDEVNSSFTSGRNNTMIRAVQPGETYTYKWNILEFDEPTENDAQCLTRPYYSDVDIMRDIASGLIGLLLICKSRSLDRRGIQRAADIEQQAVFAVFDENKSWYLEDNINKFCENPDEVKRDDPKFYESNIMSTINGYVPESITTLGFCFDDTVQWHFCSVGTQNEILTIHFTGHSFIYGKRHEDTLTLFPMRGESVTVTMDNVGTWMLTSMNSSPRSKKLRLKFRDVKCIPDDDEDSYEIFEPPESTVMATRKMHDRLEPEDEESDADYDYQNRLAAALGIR
Target sequence in this assay (P12259 1574-2224 partner limits assumed): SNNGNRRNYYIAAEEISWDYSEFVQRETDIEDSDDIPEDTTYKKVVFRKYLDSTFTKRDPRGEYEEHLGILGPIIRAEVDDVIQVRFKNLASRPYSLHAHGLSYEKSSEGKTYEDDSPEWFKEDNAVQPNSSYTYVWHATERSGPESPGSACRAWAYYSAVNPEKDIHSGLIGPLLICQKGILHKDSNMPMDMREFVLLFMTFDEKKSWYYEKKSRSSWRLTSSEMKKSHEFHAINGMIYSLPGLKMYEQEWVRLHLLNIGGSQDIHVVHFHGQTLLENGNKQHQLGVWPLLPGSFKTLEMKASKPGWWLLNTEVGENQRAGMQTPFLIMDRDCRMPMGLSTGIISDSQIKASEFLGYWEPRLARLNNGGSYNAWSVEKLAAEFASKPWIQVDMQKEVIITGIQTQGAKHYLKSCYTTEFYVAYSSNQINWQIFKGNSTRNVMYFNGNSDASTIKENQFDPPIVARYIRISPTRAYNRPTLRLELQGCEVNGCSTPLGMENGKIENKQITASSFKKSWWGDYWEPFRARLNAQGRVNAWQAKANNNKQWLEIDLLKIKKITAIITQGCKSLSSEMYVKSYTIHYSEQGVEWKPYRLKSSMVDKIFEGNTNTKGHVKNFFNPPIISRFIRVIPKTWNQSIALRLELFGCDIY
Description: To test whether Flu-II cleavage by residual FXa can be measured in whole blood, citrated blood was collected to be used in the assay. […] A mixture (50 μL) containing 2 μL of whole blood containing varying levels of the DOACs (0 to 100 nM), 0.4 μM Flu-II, and 2 μM hirudin was monitored with FlexStation 3 fluorescent plate reader as described above. Again after one minute of equilibration, 50 μL of a mixture containing 0.1 nM FXa, 10 nM FVa, 50 μM PCPS, and 20 mM CaCl2 was added and mixed by instrument trituration. The initial rates of fluorescence change was then measured and plotted with respect to the final DOAC concentration in the reaction mixture, which results in a 1:50 dilution.
Assay [2] has as its target T1, FXa. The experiment in a line: Flu-II cleavage by residual FXa in individual plasma samples. As to conditions: citrated plasma from four individuals; rivaroxaban 0 to 5 nM, apixaban 0 to 10 nM.
Target sequence in this assay (P00742 41-179 limits assumed): as the sequence (P00742 41-179 limits assumed) above
Target sequence in this assay (P00742 235-488 limits assumed): as the sequence (P00742 235-488 limits assumed) above
Target sequence in this assay (P12259 29-737 partner limits assumed): as the sequence (P12259 29-737 partner limits assumed) above
Target sequence in this assay (P12259 1574-2224 partner limits assumed): as the sequence (P12259 1574-2224 partner limits assumed) above
Assay [3] has as its target T1, FXa. Description: Rate of Flu-II cleavage by residual FXa in normal human pooled plasma. As to conditions: rivaroxaban 0 to 5 nM, apixaban 0 to 10 nM, 0.1 nM FXa mixture.
Target sequence in this assay (P00742 41-179 limits assumed): as the sequence (P00742 41-179 limits assumed) above
Target sequence in this assay (P00742 235-488 limits assumed): as the sequence (P00742 235-488 limits assumed) above
Target sequence in this assay (P12259 29-737 partner limits assumed): as the sequence (P12259 29-737 partner limits assumed) above
Target sequence in this assay (P12259 1574-2224 partner limits assumed): as the sequence (P12259 1574-2224 partner limits assumed) above
Assay [4] addresses T1, FXa. Description: Flu-II cleavage by residual FXa in plasma with LMWH. The following applies: normal human pooled plasma, LMWH 0 to 1 unit/mL final.
Target sequence in this assay (P00742 41-179): as the sequence (P00742 41-179 limits assumed) above
Target sequence in this assay (P00742 235-488): as the sequence (P00742 235-488 limits assumed) above
Target sequence in this assay (P01008 33-464 partner): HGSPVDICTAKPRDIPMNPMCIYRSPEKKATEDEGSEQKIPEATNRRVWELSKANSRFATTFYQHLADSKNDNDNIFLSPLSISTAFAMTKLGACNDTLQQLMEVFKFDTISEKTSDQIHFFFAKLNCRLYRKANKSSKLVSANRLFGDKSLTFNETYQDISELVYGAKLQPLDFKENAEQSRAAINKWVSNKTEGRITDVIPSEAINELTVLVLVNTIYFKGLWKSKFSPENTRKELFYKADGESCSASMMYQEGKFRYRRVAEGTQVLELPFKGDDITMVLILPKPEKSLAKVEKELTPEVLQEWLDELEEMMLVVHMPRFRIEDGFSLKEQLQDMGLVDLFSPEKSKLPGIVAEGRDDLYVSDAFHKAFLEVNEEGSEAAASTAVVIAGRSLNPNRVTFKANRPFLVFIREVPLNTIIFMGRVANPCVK

`O=C(NC[C@H]1CN(c2ccc(N3CCOCC3=O)cc2)C(=O)O1)c1ccc(Cl)s1` [rivaroxaban]: on FXa [1], the “maximal inhibition (initial rate of Flu-II cleavage)” value is on record as around 50%. Moreover, the “maximal inhibition of total FXa activity” value at FXa [2] is around 80%. Besides, on FXa [3], the “overall inhibition of total activity (rate of Flu-II cleavage)” value is recorded as around 85%.
Turning to dalteparin, the “response of rate of Flu-II cleavage to levels of LMWH” value at FXa [4] is reported as “sensitive to the levels of LMWH”.

These data come from patent US11034993B2, “Assay to measure factor Xa inhibitors” (McMaster University, priority 2018, dated 2021).
